Results on three compounds are retold here after patent US20250044306A1, “Methods for Determining Opioid Responsiveness in the Treatment of Pain” (priority 2021, published 2025).

Experiment [1] relates to thermal hyperalgesia in SCI animals. Briefly: Tail flick thermal nociception in contusion SCI rats. Format: in vivo, Long-Evans rats. To be noted: for % analgesia (maximum possible effect, MPE), tail flick latency: drug alone, s.c. 30 mins prior to testing, morphine 2 mg/kg; for % Analgesia scores, injection of drug alone, compared to morphine alone (52.01%) / % analgesia (MPE), tail flick latency, drug added to morphine: rat, in vivo. (Thermal pain tests record how soon the animal reacts.)

Experiment [2] shares this test system. To be noted: rodent SCI model; Rodgers et al. 2019, 2020; cited from earlier work.
In another experiment the test system is patients with pain. To be noted: clinical study using morphine to treat pain; cited from earlier work.
The next experiment addresses DIR receptor (Homo sapiens, UniProt P21728). To be noted: Millan, Maiofiss et al. 2002; Chen, Collins et al. 2008; cited from earlier work.
Setting [3] is: morphine nonresponsive SCI animals (n=18), pramipexole 0.1 mg/kg, SCH 39166 0.1 mg/kg.

Where “and” joins values, the source holds several entries; their conditions need not be identical. Equal entries are not always repeated.

Sequence of DIR receptor (P21728 whole entry): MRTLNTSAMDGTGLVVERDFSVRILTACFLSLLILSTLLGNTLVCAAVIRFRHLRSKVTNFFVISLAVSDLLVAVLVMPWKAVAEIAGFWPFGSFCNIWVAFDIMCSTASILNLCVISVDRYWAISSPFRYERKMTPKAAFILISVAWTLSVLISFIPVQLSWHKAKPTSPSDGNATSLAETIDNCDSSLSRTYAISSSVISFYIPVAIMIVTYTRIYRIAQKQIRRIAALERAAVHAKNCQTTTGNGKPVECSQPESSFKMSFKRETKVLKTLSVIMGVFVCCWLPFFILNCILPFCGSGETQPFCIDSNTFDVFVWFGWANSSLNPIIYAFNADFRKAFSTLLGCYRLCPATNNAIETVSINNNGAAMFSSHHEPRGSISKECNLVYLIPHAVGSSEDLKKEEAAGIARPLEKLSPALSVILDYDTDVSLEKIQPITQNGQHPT

Take `CN1CCc2cc(Cl)c(O)cc2[C@H]2c3ccccc3CC[C@@H]21` [SCH 39166]: the “% analgesia (maximum possible effect, MPE), tail flick latency” value in experiment [1] (setting [3]) was −37.5%±6.99. For the same compound, in experiment [1], the “% Analgesia scores, injection of drug alone, compared to morphine alone (52.01%)” value is −21.07%±10.46; the “% analgesia (MPE), tail flick latency, drug added to morphine” value is 18.79%±13.547 and 29.56%+11.51.

With `CN1CC[C@]23c4c5ccc(O)c4O[C@H]2[C@@H](O)C=C[C@H]3[C@H]1C5` [morphine], the “Share of SCI animals in which an acute injection of morphine provided analgesia” value in experiment [1] (morphine 2 mg/kg s.c., n=8 of 26 SCI animals) was “one third”. Further, the “% analgesia (maximum possible effect, MPE), tail flick latency” value in experiment [1] (setting [3]) is −24.48%±6.241. Moreover, the “% analgesia (maximum possible effect, MPE), tail flick latency” value in experiment [1] (morphine responsive SCI animals (n=8)) is recorded as 52.01%±3.494. Further, the “Share of SCI animals responsive to morphine (earlier studies)” value in experiment [2] was “⅓ and one third”. Also, in the experiment on patients with pain, the “Patients who continued morphine treatment for pain management for more than 12 months” value is 15% and the “Patients who failed to respond to morphine treatment” value was “more than 50%”. Further, the “Binding to the DIR receptor” value at DIR receptor is “neither morphine nor pramipexole bind to the DIR receptor”.

Take `CCCN[C@H]1CCc2nc(N)sc2C1` [pramipexole]: the “% analgesia (maximum possible effect, MPE), tail flick latency” value in experiment [1] (setting [3]) is listed as −7.27%±11.06. In addition, in experiment [1], the “% Analgesia scores, injection of drug alone, compared to morphine alone (52.01%)” value was 12.87%±15.84; the “% analgesia (MPE), tail flick latency, drug added to morphine” value was 96.98%±1.985 and 64.38%±10.37.
